This is an account of results in patent publication US20250109140A1, “5-[5-(PIPERIDIN-4-YL)THIENO[3,2-C]PYRAZOL-2-YL]INDAZOLE DERIVATIVES AND RELATED COMPOUNDS AS MODULATORS FOR SPLICING NUCLEIC ACIDS AND FOR THE TREATMENT OF PROLIFERATIVE DISEASES” (REMIX THERAPUTICS INC., priority 2022, published 2025).

Where two headings read alike, the source gives them in different places.

For one experiment, the system named is HTT mRNA. The experiment can be described thus: Splicing RT-qPCR assay, HTT canonical (CJ) and alternative (AJ) junction mRNA. In kind it is cell-based. The note with it: Homo sapiens; for EC50: AC50 = 50% response in AJ mRNA increase. Put shortly:
(§1)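 A673/K562; 11-pt 3-fold dil., top 10 uM final, ≤0.25% DMSO; 24 h, 37 °C, 5% CO2. Lysis, then RT-qPCR of CJ/AJ isoforms, ≥duplicate. ΔCt vs housekeeper (GAPDH/GUSB/PPIA), ΔΔCt vs DMSO, RQ = 2^(−ΔΔCt), expressed as % response.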

A further experiment has as its system MYB mRNA. Nature of the experiment: Splicing RT-qPCR assay, MYB canonical (CJ) and alternative (AJ) junction mRNA. Format: cell-based. To be noted: Homo sapiens; for EC50: AC50 = 50% response in AJ mRNA increase. In short, it runs like this: as §1
For the next experiment, the system named is SMN2 mRNA. Nature of the experiment: Splicing RT-qPCR gene panel, SMN2 canonical junction (CJ) mRNA. Format: cell-based. To be noted: Homo sapiens; Table 8; larger gene panel, decrease in CJ mRNA levels. Put shortly: as §1
(In general: Quantitative PCR measures a nucleic acid by following its amplification.)

The test system of another experiment is Target C mRNA. Nature of the experiment: Splicing RT-qPCR gene panel, Target C canonical junction (CJ) mRNA. Format: cell-based. To be noted: Homo sapiens; Table 8; larger gene panel, decrease in CJ mRNA levels. Put shortly:
as §1

The test system of a further experiment is HiBiT-tagged MYB protein. Nature of the experiment: HiBiT protein abundance assay, MYB (K562 HiBiT knock-in cells). The note with it: 24 hours treatment. In kind it is cell-based, human. In short, it runs like this: (§2)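 Luminescence from the Nano-Glo HiBiT lytic reagent measured tagged protein remaining in knock-in K562 cells after 24 h compound exposure (top dose 10 µM final, 3-fold, 10 points). Responses normalized between parental K562 and DMSO-treated lines were fit by four-parameter logistic to interpolate the 50% concentration.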
For orientation: With HiBiT, luminescence reflects the tagged protein that the partner subunit can reach.

The test system of a further experiment is HiBiT-tagged HTT protein. The experiment can be described thus: HiBiT protein abundance assay, HTT (K562 HiBiT knock-in cells). The note with it: 24 hours treatment. In kind it is cell-based, human. Put shortly:
as §2

Experiment [1] deals with K562 (human chronic myelogenous leukemia) cells. The experiment can be described thus: Cell viability, Cell Titer Glo 2.0 assay, K562 cells. In kind it is cell-based. To be noted: 72 hours. Put shortly: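 Luminescent Cell Titer Glo 2.0 readout after 72 h exposure (37° C, 5% CO2), medium-only wells as blank. Cells plated 500/well in IMDM with 10% FBS; test compounds diluted from DMSO series 1:100 into medium, 0.1% DMSO final.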

In the next experiment the test system is Target C. Nature of the experiment: HiBiT protein abundance assay, Target C (K562 HiBiT knock-in cells). The note with it: 24 hours treatment. In kind it is cell-based, human. Put shortly: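 The readout was Nano-Glo HiBiT lytic luminescence after 24 h compound exposure at 37 °C, in 10000 K562 knock-in cells/well. Compounds ran as 10-point, 3-fold series, top final […], ≤0.25% DMSO. Responses were scaled between parental K562 and DMSO-treated controls, and IC50 was interpolated at 50% from four-parameter logistic curves.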

Where [2] appears, read: Table 7, RT-qPCR, A673 or K562 cells, 24 hours treatment.
Setting [3] is: Table 7, IC50 = 50% response in CJ mRNA decrease, RT-qPCR, A673 or K562 cells, 24 hours treatment, read-out: HTT CJ.
Where [4] appears, read: Table 8, larger gene panel, decrease in CJ mRNA levels, read-out: HTT CJ IC50.
Where [5] appears, read: Table 7, IC50 = 50% response in CJ mRNA decrease, RT-qPCR, A673 or K562 cells, 24 hours treatment, read-out: MYB CJ.
Setting [6] is: Table 8, larger gene panel, decrease in CJ mRNA levels, read-out: MYB CJ IC50.

For orientation: EC50 means the concentration giving half of the maximal effect. For the compound `Cc1cn2cc(-n3cc4sc(C5CCNCC5)cc4n3)nc2c(C)n1` [Compound 181], the values for the EC50 with HTT mRNA (setting [2]) and with MYB mRNA (setting [2]) were 1000 to 10000 nM and greater than 10000 nM, respectively. For the same compound, the IC50 in the experiment with HTT mRNA (setting [3]) is 1000 to 10000 nM; in the experiment on HTT mRNA (setting [4]), 1000 to 10000 nM; in the experiment with MYB mRNA (setting [5]), greater than 10000 nM; in the experiment with MYB mRNA (setting [6]), greater than 10000 nM; in the experiment on SMN2 mRNA, 1000 to 10000 nM; in the experiment on Target C mRNA, greater than 10000 nM. The IC50 in the experiment on HiBiT-tagged MYB protein was 1000 to 10000 nM; in the experiment with HiBiT-tagged HTT protein, 1000 to 10000 nM; in experiment [1], 1000 to 10000 nM; with Target C it was greater than 10000 nM.

For the compound `Cn1cc2cc(-c3cc4cn([C@H]5CCNC[C@H]5F)nc4s3)cc(F)c2n1` [Compound 182], the EC50 with HTT mRNA (setting [2]) was in the range of 100 to 1000 nM; in the experiment on MYB mRNA (setting [2]), 1000 to 10000 nM. Further, the IC50 in the experiment on HTT mRNA (setting [3]) is less than 100 nM; in the experiment on HTT mRNA (setting [4]), 100 to 1000 nM; in the experiment on MYB mRNA (setting [5]), 100 to 1000 nM; in the experiment on MYB mRNA (setting [6]), 1000 to 10000 nM; in the experiment on SMN2 mRNA, less than 100 nM; in the experiment with Target C mRNA it was 100 to 1000 nM. The IC50 is 100 to 1000 nM in the experiment with HiBiT-tagged MYB protein, less than 100 nM in the experiment on HiBiT-tagged HTT protein, 100 to 1000 nM in experiment [1] and 100 to 1000 nM in the experiment with Target C.

In the case of `Cn1cc2cc(-c3cc4cn([C@@H]5CCNC[C@@H]5F)nc4s3)cc(F)c2n1` [Compound 183], the EC50 with HTT mRNA (setting [2]) and in the experiment on MYB mRNA (setting [2]) was 1000 to 10000 nM each time. Besides, the IC50 lay within 100 to 1000 nM in the experiment with HTT mRNA (setting [3]); 1000 to 10000 nM in the experiment with HTT mRNA (setting [4]); 1000 to 10000 nM in the experiment on MYB mRNA (setting [5]); 1000 to 10000 nM in the experiment on MYB mRNA (setting [6]); 100 to 1000 nM in the experiment on SMN2 mRNA; 1000 to 10000 nM with Target C mRNA. For the same compound, the IC50 is 100 to 1000 nM in the experiment with HiBiT-tagged MYB protein, less than 100 nM with HiBiT-tagged HTT protein, 100 to 1000 nM in experiment [1] and less than 100 nM in the experiment with Target C.

As for `Cn1cc2cc(-c3cc4cn(C5CNC5)nc4s3)cc(F)c2n1` [Compound 184], the EC50 in the experiment with HTT mRNA (setting [2]) and in the experiment with MYB mRNA (setting [2]) was 1000 to 10000 nM in each case. Also, the IC50 in the experiment with HTT mRNA (setting [3]) is 1000 to 10000 nM; in the experiment with HTT mRNA (setting [4]), 1000 to 10000 nM; in the experiment with MYB mRNA (setting [5]), 1000 to 10000 nM; with MYB mRNA (setting [6]) it was 1000 to 10000 nM; with SMN2 mRNA, 100 to 1000 nM; with Target C mRNA, greater than 10000 nM. Besides, the IC50 was 1000 to 10000 nM in the experiment on HiBiT-tagged MYB protein, 1000 to 10000 nM in the experiment with HiBiT-tagged HTT protein, 1000 to 10000 nM in experiment [1] and greater than 10000 nM in the experiment with Target C.

`Cn1cc2cc(-c3cc4cn([C@@H]5CCNC[C@H]5F)nc4s3)cc(F)c2n1` [Compound 187]: the EC50 was less than 100 nM in the experiment with HTT mRNA (setting [2]) and 100 to 1000 nM in the experiment on MYB mRNA (setting [2]). In addition, the IC50 in the experiment with HTT mRNA (setting [3]) is less than 100 nM; with HTT mRNA (setting [4]), less than 100 nM; in the experiment on MYB mRNA (setting [5]) it was 100 to 1000 nM; in the experiment on MYB mRNA (setting [6]) it was 100 to 1000 nM; in the experiment with SMN2 mRNA, less than 100 nM; in the experiment with Target C mRNA, 100 to 1000 nM. Besides, the IC50 was 100 to 1000 nM with HiBiT-tagged MYB protein, less than 100 nM in the experiment with HiBiT-tagged HTT protein, 1000 to 10000 nM in experiment [1] and 100 to 1000 nM in the experiment on Target C.

Regarding `Cc1cn2nc(-n3cc4sc(N5CC6(CN(C)C6)C5)cc4n3)cc(C)c2n1` [Compound 188, 2-(2-{2,8-dimethylimidazo[1,2-b]pyridazin-6-yl}thieno [3,2-c]pyrazol-5-yl)-6-methyl-2,6-diazaspiro [3.3]heptane], the EC50 in the experiment on HTT mRNA (setting [2]) and with MYB mRNA (setting [2]) was 1000 to 10000 nM in each case. Moreover, the IC50 in the experiment on HTT mRNA (setting [3]) is 100 to 1000 nM; with HTT mRNA (setting [4]), 1000 to 10000 nM; with MYB mRNA (setting [5]), 1000 to 10000 nM; with MYB mRNA (setting [6]), 1000 to 10000 nM; in the experiment with SMN2 mRNA, 100 to 1000 nM; in the experiment on Target C mRNA, 1000 to 10000 nM. Further, the IC50 (in the experiment with HiBiT-tagged MYB protein; in the experiment with HiBiT-tagged HTT protein; in experiment [1]; with Target C) was 1000 to 10000 nM each time.

As to `Cc1cn2nc(-n3cc4sc(N5CCC(NC(C)(C)C)C5)cc4n3)cc(C)c2n1` (stereo not drawn) [Compound 189, N-tert-butyl-1-(2-{2,8-dimethylimidazo[1,2-b]pyridazin-6-yl}thieno[3,2-c]pyrazol-5-yl) pyrrolidin-3-amine], the EC50 in the experiment with HTT mRNA (setting [2]) and in the experiment on MYB mRNA (setting [2]) was greater than 10000 nM each time. Further, the IC50 is greater than 10000 nM in the experiment on HTT mRNA (setting [3]); greater than 10000 nM in the experiment with HTT mRNA (setting [4]); greater than 10000 nM in the experiment with MYB mRNA (setting [5]); greater than 10000 nM in the experiment on MYB mRNA (setting [6]); 1000 to 10000 nM in the experiment with SMN2 mRNA; greater than 10000 nM with Target C mRNA. Besides, the IC50 with HiBiT-tagged MYB protein was greater than 10000 nM; with HiBiT-tagged HTT protein, greater than 10000 nM; in experiment [1] it was 1000 to 10000 nM; in the experiment on Target C it was greater than 10000 nM.
